The text below walks through data of patent publication US20250066389A1, “HETEROCYCLIC AMIDES AND METHODS OF USING THE SAME” (Rgenta Therapeutics, Inc., priority 2021, published 2025).

This test deals with PMS1. The test is described as follows: Mini-Gene Reporter Assay—PMS1 (firefly luciferase mini-gene reporter transiently transfected into HEK293 cells). The test is classed as cell-based. Particulars: Homo sapiens, mini-gene firefly luciferase reporter in HEK293 cells; for activation at 5 µM: read-out: PMS1 % Effect at 5 uM. The gist of the method: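 HEK293 cells transiently transfected with a mini-gene construct (skipped exon with flanking introns/exons fused to firefly luciferase, pcDNA3.1) are incubated with compounds in duplicate. Exon inclusion raises luminescence; EC50 fitted by Levenberg-Marquardt; effect also scored at 5 μM.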
(In general: A reporter such as luciferase makes a cellular process visible.)

Structures are written as SMILES. Where a name gives a salt, the structure may show the parent alone.

The term IC50 denotes the point on the concentration scale where inhibition reaches its midpoint. Lower therefore signals greater potency. `CCOc1nc2nc(C)cn2cc1C(=O)Nc1ccc(N2CCNCC2)nn1` [Compound 732, 7-ethoxy-2-methyl-N-(6-(piperazin-1-yl)pyridazin-3-yl)imidazo[1,2-a]pyrimidine-6-carboxamide formate] returned an IC50 of 1000 to 10000 nM.

On to `CCOc1cc2nc(C)cn2cc1C(=O)Nc1ccc(N2CCNCC2C)nn1` (centres unmarked) [Compound 291], for which the IC50 is 1000 to 10000 nM.

As to `COc1cc2nn(C)cc2cc1C(=O)Nc1cnc(N2CCNCC2)cn1` [Compound 746, 6-methoxy-2-methyl-N-(5-(piperazin-1-yl)pyrazin-2-yl)-2H-indazole-5-carboxamide formate], the IC50 fell in the range of 1000 to 10000 nM.

Consider `CCOc1cc2nn(C)cc2cc1C(=O)Nc1ccc(N2CCNCC2)nn1` [Compound 749, 6-ethoxy-2-methyl-N-(6-(piperazin-1-yl)pyridazin-3-yl)-2H-indazole-5-carboxamide hydrochloride], for which the activation at 5 µM is above 75%.

On to `CCOc1cc2nc(C)cn2cc1C(=O)Nc1ccc(N2CCC3(CCNC3)CC2)nn1` [Compound 275], for which the IC50 lay in the range of 1000 to 10000 nM.

Regarding `CCOc1cc2nc(C)cn2cc1C(=O)Nc1ccc(N2CCNCCC2C)nn1` (centres unmarked) [Compound 264], the IC50 is 1000 to 10000 nM.

On to `CCOc1cn2nc(C)cc2cc1C(=O)Nc1cnc(N2CC3(CCNCC3)C2)nc1` [Compound 625], for which the activation at 5 µM is 50 to 75%.

For `CCOc1cc2nn(C)cc2cc1C(=O)Nc1cnc(N2CC(O)(C3CCCN3)C2)cn1` (centres unmarked) [Compound 309], the activation at 5 µM was above 75%.

Regarding `CCOc1cn2nc(C)cc2cc1C(=O)Nc1cnc(N(C)C[C@@H]2CCCN2)nc1` [Compound 576], the activation at 5 µM is below 50%.

Consider `CCOc1cc2nn(C)cc2cc1C(=O)Nc1cnc(N2CCC3CCCNC3C2)cn1` (centres unmarked) [Compound 303], for which the activation at 5 µM is 50 to 75%.

Take `CCOc1cc2nc(C)cn2cc1C(=O)Nc1cnc(N[C@H]2CCNC2)cn1` [Compound 696]: the activation at 5 µM was in the range of 50 to 75%.

As for `CCOc1cc2nn(C)cc2cc1C(=O)Nc1cnc(N[C@@H]2CNC[C@@H](F)C2)nc1` [Compound 386], the activation at 5 µM was below 50%.

The compound `COc1cc2nc(C)cn2cc1C(=O)Nc1cnc(N2CCN[C@@H](C)C2)cn1` [Compound 198, (S)-7-methoxy-2-methyl-N-(5-(3-methylpiperazin-1-yl)pyrazin-2-yl)imidazo[1,2-a]pyridine-6-carboxamide hydrochloride] came in with an IC50 below 1000 nM.

With `CCOc1cc2nc(C)cn2cc1C(=O)Nc1ccc(N2CC34CCCC3(CNC4)C2)nn1` (centres unmarked) [Compound 242], the IC50 is 1000 to 10000 nM.

Take `CCOc1cc2nn(C)cc2cc1C(=O)Nc1cnc(N2CCCC(NC)C2)nc1` (centres unmarked) [Compound 466]: the activation at 5 µM is below 50%.

The compound `CCNC1CN(c2ccc(NC(=O)c3cn4cc(C)nc4cc3OCC)nn2)C1` [Compound 262] came in with an IC50 of 1000 to 10000 nM.

For the compound `CCOc1cn2nc(C)cc2cc1C(=O)Nc1cnc(NC[C@H]2CCCN2)nc1` [Compound 593], the activation at 5 µM is below 50%.

The compound `CCOc1cc2nc(C)cn2cc1C(=O)Nc1ccc(N2CCC(C3CCCN3)C2)nn1` (centres unmarked) [Compound 233] gave an IC50 of 1000 to 10000 nM.

As for `COc1cc2nn(C)cc2cc1C(=O)Nc1ccc(N2CCNCC2)nn1` [Compound 123, 6-methoxy-2-methyl-N-(6-(piperazin-1-yl)pyridazin-3-yl)-2H-indazole-5-carboxamide hydrochloride], the IC50 lay within 1000 to 10000 nM.

Turning to `CCOc1cn2nc(C)cc2cc1C(=O)Nc1cnc(NCC2(F)CC(N)C2)cn1` (centres unmarked) [Compound 493], the activation at 5 µM is below 50%.

Regarding `CCOc1cc2nc(C)cn2cc1C(=O)Nc1cnc(N2CCC(NC)CC2)cn1` [Compound 691], the activation at 5 µM was above 75%.

Regarding `CCOc1cc2nc(C)cn2cc1C(=O)Nc1cnc(N2CC(N)C3(CC3)C2)cn1` (centres unmarked) [Compound 678], the activation at 5 µM was above 75%.

In the case of `CCCC[C@H]1CN(c2cnc(NC(=O)c3cc4cc(C)nn4cc3OCC)cn2)CCN1` [Compound 540], the activation at 5 µM was above 75%.
